Laboratory results from article PMC13227213, “Design of strictly orthogonal biosensors for maximizing renewable biofuel overproduction” (Journal of Advanced Research, 2025).

Columns and labels:
E. coli MG1655 = test: Tolerance of wild-type MG1655 to pentanols (OD600)
Method: To assess the tolerance of wild-type MG1655 to n-pentanol or isopentanol, the single colony of wild-type MG1655 was inoculated into 3 mL LB medium and cultured at 37 °C for 8–10 h to obtain the seed culture. 50 µL of the seed culture was transferred to 5 mL LB medium adding 0–100 mM n-pentanol or isopentanol and grown at 37 °C with 220 rpm for 12 h. A microplate reader (BioTek Cytation 3) was used to detect the OD600 values.

BmoR A117T/F163Y = biological target: T1, BmoR A117T/F163Y (Thauera butanivorans, UniProt A7MAQ9, A117T/F163Y); test: cell-based; design: species or system E. coli XL10-Gold; settings: n = 3; read-out: Apparent Km
T1 construct: full-length BmoR, biosensor plasmid pWT-A117T/F163Y (PbmoR-bmoR; Pbmo-gfp)
T1 sequence (A7MAQ9 entry or part of it A117T/F163Y): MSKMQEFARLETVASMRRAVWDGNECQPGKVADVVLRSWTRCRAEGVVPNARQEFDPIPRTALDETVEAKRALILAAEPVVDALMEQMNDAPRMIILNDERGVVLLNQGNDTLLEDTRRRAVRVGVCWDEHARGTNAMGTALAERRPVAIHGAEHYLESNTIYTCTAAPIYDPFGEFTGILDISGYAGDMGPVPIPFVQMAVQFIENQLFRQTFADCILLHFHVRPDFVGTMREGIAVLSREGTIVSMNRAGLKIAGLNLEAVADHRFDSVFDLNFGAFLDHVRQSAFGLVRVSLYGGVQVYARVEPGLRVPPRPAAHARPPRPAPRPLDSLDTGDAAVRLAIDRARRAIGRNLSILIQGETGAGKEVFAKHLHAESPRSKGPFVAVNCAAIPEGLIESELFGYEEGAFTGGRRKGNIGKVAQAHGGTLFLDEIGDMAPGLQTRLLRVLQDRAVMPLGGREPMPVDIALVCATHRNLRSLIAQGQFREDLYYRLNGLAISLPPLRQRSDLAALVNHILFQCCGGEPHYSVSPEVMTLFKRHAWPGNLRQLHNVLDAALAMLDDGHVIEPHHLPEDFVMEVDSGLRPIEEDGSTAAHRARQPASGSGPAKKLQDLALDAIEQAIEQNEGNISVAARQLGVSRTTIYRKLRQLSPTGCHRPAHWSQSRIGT
Method: (§1) The response values of the above colonies containing various BmoR mutants to n-pentanol, isopentanol, n-butanol or isobutanol were tested. The single colonies were pre-inoculated into 5 mL LB medium with 50 μg/mL carbenicillin and then cultured at 37 °C overnight. […] The excitation and emission wavelengths were set as 470 and 510 nm, respectively. The fluorescence values were normalized as the GFP/OD600 values. Besides, 1 mL of the culture was centrifuged at 5,000 rpm for 5 min. The supernatant was discarded, and the sediment was then resuspended in 2 mL of the physiological saline. 5 μL of the culture was spotted onto glass slides for fluorescence microscopy (UOP 2100). Fifteen colonies which only responded to 10 mM n-pentanol or isopentanol were screened out. The bmoRs in the 15 colonies were amplified and sequenced to identify the mutation sites. Finally, the bmoRs in the five colonies were mutated.
The OD600 values needed to be subtracted from the OD600 value of the blank LB culture. The excitation and emission wavelengths were set as 470 and 510 nm, respectively. The fluorescence values were normalized as the GFP/OD600 values. Besides, the GFP/OD600 values of the strain containing the plasmid pYH7 was regarded as the background fluorescence to be subtracted. Apparent Km values were estimated with Prism 9.5.0 through non-linear regression of the Michaelis-Menten equation. […]

[1] = biological target: T2, BmoR WT (fusion with sfGFP) (Thauera butanivorans, UniProt A7MAQ9); test: MicroScale Thermophoresis of sfGFP-fused BmoR in E. coli BL21(DE3) lysate supernatant, 16-point ligand dilution in assay buffer with 1 % DMSO, incubated at 37 °C for 15 min.; format: binding; settings: n = 3
T2 construct: SUMO-BmoR-TEV-sfGFP-His fusion, E. coli BL21(DE3) lysate supernatant
T2 sequence (A7MAQ9 1-669): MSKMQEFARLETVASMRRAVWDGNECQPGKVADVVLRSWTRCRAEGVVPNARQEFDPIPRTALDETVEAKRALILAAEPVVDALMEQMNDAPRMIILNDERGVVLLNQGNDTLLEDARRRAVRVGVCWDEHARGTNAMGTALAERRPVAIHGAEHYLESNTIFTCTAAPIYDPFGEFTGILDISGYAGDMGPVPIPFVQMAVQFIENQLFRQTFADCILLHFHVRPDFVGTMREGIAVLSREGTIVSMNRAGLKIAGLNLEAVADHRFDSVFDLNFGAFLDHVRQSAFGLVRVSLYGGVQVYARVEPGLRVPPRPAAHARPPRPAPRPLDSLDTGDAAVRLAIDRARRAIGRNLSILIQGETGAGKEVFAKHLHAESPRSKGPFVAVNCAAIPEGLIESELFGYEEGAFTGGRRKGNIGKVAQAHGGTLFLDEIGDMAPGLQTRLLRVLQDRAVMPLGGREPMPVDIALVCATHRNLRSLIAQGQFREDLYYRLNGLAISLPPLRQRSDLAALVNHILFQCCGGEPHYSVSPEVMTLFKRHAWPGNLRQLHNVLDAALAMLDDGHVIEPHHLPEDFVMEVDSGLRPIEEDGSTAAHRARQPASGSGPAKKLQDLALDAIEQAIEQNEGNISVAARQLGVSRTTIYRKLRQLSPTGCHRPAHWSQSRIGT
Method: (§2) Plasmids pWT-SUMO-BmoR-TEV-sfGFP-His, pWT-SUMO-BmoR^M94V/A117T/F163Y/F272L-TEV-sfGFP-His, and pWT-SUMO-BmoR^M94V/W128R/F272L-TEV-sfGFP-His were individually transformed into E. coli BL21(DE3). […] Subsequently, 100 µL of the seed culture was transferred to 100 mL LB medium and grown at 37 °C until the OD600 value reached 0.8. 0.1 mM IPTG was added into the culture, and the culture was incubated at 16 °C, 170 rpm for 12–18 h. 50 mL centrifuge tubes were used to centrifuge the culture at 5,000 rpm for 15 min to collect the cell pellets. The pellets were then resuspended in 15 mL of the binding buffer, and the cells were disrupted using the ultrasonic cell crusher. The mixture was then centrifuged at 10,000 rpm for 30 min to collect the supernatant. The Kd values of the wild-type BmoR and the mutants towards four SMs were measured by the MicroScale Thermophoresis (MST, Nanotemper) from Wuhan Bio-lab Biotechnology Co., Ltd.
(§3) A 10 µL aliquot of the supernatant was diluted three folds with the assay buffer. The MST sample chamber was opened, and the tray was removed. The diluted protein sample was aspirated using a capillary and placed in the corresponding slot of the tray. The information of the protein samples and assay bugger was input, and the type of capillary was selected. The excitation power was set to “Auto”, and MST power was set to “High”. The concentration of the samples was adjusted using the assay buffer to 1/3 for BmoR^WT, BmoR^M94V/A117T/F163Y/F272L and BmoR^M94V/W128R/F272L. The samples were diluted to 100 µL/2000 µM using the assay buffer. Two eight-well strips were prepared and labeled from 1st to 16th. 10 µL of the assay buffer (1 % DMSO) was added into the 2nd-16th tubes, while 20 µL of the prepared sample was added to the 1st tube. 10 µL from the 1st tube was sequentially diluted into the 2nd-16th tubes. Subsequently, 10 µL of the lysate was added to each tube and mixed thoroughly. The mixed samples were incubated at 37 °C for 15 min before aspirating with a capillary to load into the sample tray. The software was started to begin the experiment.

BmoR W128R = biological target: T3, BmoR W128R (Thauera butanivorans, UniProt A7MAQ9, W128R); test: Whole-cell BmoR biosensor dose-response (GFP/OD600, Pbmo-gfp reporter) in 96-deep-well plates with 0-60 mM pentanols or 0-100 mM butanols, LB medium at 30 °C, fitted to the Michaelis-Menten equation.; format: cell-based, E. coli XL10-Gold; settings: n = 3; read-out: Apparent Km
T3 construct: full-length BmoR, biosensor plasmid pWT-W128R (PbmoR-bmoR; Pbmo-gfp)
T3 sequence (A7MAQ9 entry or part of it W128R): as the sequence (A7MAQ9 entry or part of it A117T/F163Y) above, with T117A, W128R, Y163F counted along it
Method: as §1
(§4) The OD600 values needed to be subtracted from the OD600 value of the blank LB culture. The excitation and emission wavelengths were set as 470 and 510 nm, respectively. The fluorescence values were normalized as the GFP/OD600 values. Besides, the GFP/OD600 values of the strain containing the plasmid pYH7 was regarded as the background fluorescence to be subtracted. Apparent Km values were estimated with Prism 9.5.0 through non-linear regression of the Michaelis-Menten equation. Finally, one or two effective mutants with orthogonal response towards n-pentanol or isopentanol were obtained.

BmoR WT = biological target: T4, BmoR WT (Thauera butanivorans, UniProt A7MAQ9); test: as above; format: cell-based, E. coli XL10-Gold; settings: n = 3; read-out: Apparent Km
T4 construct: full-length BmoR, expressed from biosensor plasmid (PbmoR-bmoR; Pbmo-gfp) in E. coli; hexamer
T4 sequence (A7MAQ9 1-669): T2 sequence (A7MAQ9 1-669)
Method: as §1, §4

[2] = biological target: T5, BmoR M94V/A117T/F163Y/F272L (fusion with sfGFP) (Thauera butanivorans, UniProt A7MAQ9, A117T/F163Y/F272L/M94V); test: MicroScale Thermophoresis of sfGFP-fused BmoR in E. coli BL21(DE3) lysate supernatant, 16-point ligand dilution in assay buffer with 1 % DMSO, incubated at 37 °C for 15 min.; format: binding; settings: n = 3
T5 construct: SUMO-BmoR-TEV-sfGFP-His fusion, E. coli BL21(DE3) lysate supernatant
T5 sequence (A7MAQ9 entry or part of it M94V/A117T/F163Y/F272L): as the sequence (A7MAQ9 entry or part of it A117T/F163Y) above, with M94V, F272L counted along it
Method: as §2, §3

[3] = biological target: T6, BmoR M94V/W128R/F272L (fusion with sfGFP) (Thauera butanivorans, UniProt A7MAQ9, F272L/M94V/W128R); test: as above; format: binding; settings: n = 3
T6 construct: SUMO-BmoR-TEV-sfGFP-His fusion, E. coli BL21(DE3) lysate supernatant
T6 sequence (A7MAQ9 entry or part of it M94V/W128R/F272L): as the sequence (A7MAQ9 entry or part of it A117T/F163Y) above, with M94V, T117A, W128R, Y163F, F272L counted along it
Method: as §2, §3

Δ33 = settings: 40 mM
Method: (§5) A library of E. coli MG1655-derived strains with different genomic large-fragment deletions ranging from 14 to 143 kb was constructed and stored. To screen pentanol-tolerant strains, the strains from the library were inoculated into 3 mL LB medium and cultured at 37 °C for 8–10 h to obtain seed cultures. Subsequently, 50 µL of the seed culture was transferred to 5 mL LB medium in the presence of 20 mM n-pentanol or isopentanol and grown at 37 °C with 220 rpm for 12 h. A microplate reader (BioTek Cytation 3) was used to detect the OD600 values.

Δ29 = settings: equivalent isopentanol stress (40 mM)
Method: as §5

| Compound | EC50 (BmoR A117T/F163Y) [mM] | Kd [1] [nM] | EC50 (BmoR W128R) [mM] | EC50 (BmoR WT) [mM] | other results |
| --- | --- | --- | --- | --- | --- |
| CCCCCO [n-pentanol] |  |  |  |  | fold reduction of OD600 (E. coli MG1655; 20 mM): 2.67 fold; OD600 of wild-type MG1655 (E. coli MG1655; 20 mM, 12 h): 0.420 ± 0.032; growth of wild-type MG1655 (in words) (E. coli MG1655; 60 mM): failing to grow |
| CC(C)CO [Isobutanol, 2-methyl-1-propanol] | 22.3 | 11800 | 63.3 | 8.75 |  |
| CCCCCO [n-Pentanol, 1-pentanol] | 59.5 | 106 |  | 5.09 | Kd [2]: 0.322 mM |
| CC(C)CCO [Isopentanol, 3-methyl-1-butanol] |  | 93.8 | 58.2 | 3.99 | Kd [3]: 26.1 nM |
| CC(C)CCO [isopentanol] |  |  |  |  | fold increase of OD600 / biomass compared to the wild type (Δ33): 1.34 fold; fold higher biomass accumulation than the wild type (Δ29): 1.58 fold |
